Patent US10174001B2, “Crystals of 5-cyclopropyl-2-((1-(3-fluorobenzyl)-1H-indol-5-yl)amino)nicotinic acid” (FUJIFILM Toyama Chemical Co., Ltd., priority 2015, dated 2019)
In brackets after ≈: the same amount, converted by molar mass.

Assays:
keratinocyte = details: cited from earlier work
[1] = Test Example 4: Stability (HPLC purity and crystal form on storage); format: physicochemical; details: for Purity (%): HPLC
Procedure: The α-form crystal and the β-form crystal were preserved under the conditions of 40 or 60° C. and a relative humidity of 75%.
Twelve weeks after the test started, the purity was measured by HPLC. Additionally, crystal forms were measured by the infrared absorption spectrum.
HPLC Measurement conditions
Measurement wavelength: 270 nm
Column: Ascentis Express C18, inner diameter 3.0 mm×length 150 mm
Column temperature: 40° C.
Mobile phase: 0.1% phosphoric acid/(acetonitrile/water=60/40) solution

[2] = Test Example 3: Hygroscopicity (rate of weight change and crystal form); format: physicochemical; details: for Stability (hygroscopicity test): 25° C., relative humidity of 75 or 97%
Procedure: The α-form crystal and the β-form crystal were preserved under the conditions of 25° C. and a relative humidity of 75 or 97%.
Sampling was carried out over time and the weights of crystals were measured to determine rates of weight changes. Additionally, crystal forms were measured by the infrared absorption spectrum.
Rate of weight change (%)=((B−A)/A)×100
A: Crystal weight before the test started
B: Crystal weight after the test started

[3] = Test Example 2: Physical Stability (mixed α/β crystals stirred in solvent, crystal form by infrared absorption spectrum); format: physicochemical
Procedure: The α-form crystal (1 part by weight) and the β-form crystal (1 part by weight) were mixed, suspended in a solvent (ethyl acetate/ethanol=5/1.5 parts by weight) and stirred at 26, 70 or 100° C.
Sampling was carried out over time and crystal forms were measured by the infrared absorption spectrum.

[4] = Test Example 1: Solubility in various organic solvents; format: physicochemical; details: for solubility at 24 h: organic solvent or mixture, thermodynamic from solid; for solubility at 24 h / Solubility: stirred for 24 hours
Procedure: The α-form crystal (about 100 mg) or the β-form crystal (about 100 mg) was suspended in various organic solvents (about 1 mL) and stirred for 24 hours. Impurities were filtered off using a membrane filter and the filtrate was analyzed by HPLC to determine the solubility.

Crystal form ([1]; 40° C. 75% RH, 0 hr) | Purity (%) ([1]; 40° C. 75% RH, 0 hr) | Crystal form ([1]; 40° C. 75% RH, 12 weeks) | Purity (%) ([1]; 40° C. 75% RH, 12 weeks) | Crystal form ([1]; 60° C. 75% RH, 0 hr) | Purity (%) ([1]; 60° C. 75% RH, 0 hr) | Crystal form ([1]; 60° C. 75% RH, 12 weeks) | Purity (%) ([1]; 60° C. 75% RH, 12 weeks) | Crystal form ([2]; 25° C. 75% RH, 0 hr) | Rate of weight change (%) ([2]; 25° C. 75% RH, 0 hr) | Crystal form ([2]; 25° C. 75% RH, 2 weeks) | Rate of weight change (%) ([2]; 25° C. 75% RH, 2 weeks) | Crystal form ([2]; 25° C. 75% RH, 4 weeks) | Rate of weight change (%) ([2]; 25° C. 75% RH, 4 weeks) | Crystal form ([2]; 25° C. 75% RH, 8 weeks) | Rate of weight change (%) ([2]; 25° C. 75% RH, 8 weeks) | Crystal form ([2]; 25° C. 75% RH, 12 weeks) | Rate of weight change (%) ([2]; 25° C. 75% RH, 12 weeks) | Crystal form ([2]; 25° C. 97% RH, 0 hr) | Rate of weight change (%) ([2]; 25° C. 97% RH, 0 hr) | Structure (SMILES) | also measured
– | – | – | – | – | – | – | – | – | – | – | – | – | – | – | – | – | – | – | – | O=C(O)c1cc(C2CC2)cnc1Nc1ccc2c(ccn2Cc2cccc(F)c2)c1 [Compound A, 5-Cyclopropyl-2-((1-(3-fluorobenzyl)-1H-indol-5-yl)amino)nicotinic acid] | Antiproliferative activity on keratinocyte (keratinocyte): excellent antiproliferative activity on keratinocyte
α | 99.4 | α | 99.5 | α | 99.4 | α | 99.5 | α | 0.00 | α | 0.08 | α | 0.08 | α | 0.24 | α | 0.22 | α | 0.00 | O=C(O)c1cc(C2CC2)cnc1Nc1ccc2c(ccn2Cc2cccc(F)c2)c1 [α-Form crystal, 5-cyclopropyl-2-((1-(3-fluorobenzyl)-1H-indol-5-yl)amino)nicotinic acid] | Crystal form ([2]; 25° C. 97% RH, 2 weeks): α; Rate of weight change (%) ([2]; 25° C. 97% RH, 2 weeks): 0.13%; Crystal form ([2]; 25° C. 97% RH, 4 weeks): α; Rate of weight change (%) ([2]; 25° C. 97% RH, 4 weeks): 0.17%; Crystal form ([2]; 25° C. 97% RH, 8 weeks): α; Rate of weight change (%) ([2]; 25° C. 97% RH, 8 weeks): 0.38%; Crystal form ([2]; 25° C. 97% RH, 12 weeks): α; Rate of weight change (%) ([2]; 25° C. 97% RH, 12 weeks): 0.32%; Stability (hygroscopicity test) [2]: stable; Crystal transition ([3]; mixed crystals stirred at 26, 70 or 100° C.): transitioned to the β-form crystal; solubility at 24 h ([4]; 2-propanol): 3.5 mg/mL (≈ 8.72 mM); solubility at 24 h ([4]; acetone): 55 mg/mL (≈ 137 mM); solubility at 24 h ([4]; acetonitrile): 3.1 mg/mL (≈ 7.72 mM); solubility at 24 h ([4]; ethanol): 8.8 mg/mL (≈ 21.9 mM); solubility at 24 h ([4]; ethyl acetate): 19.7 mg/mL (≈ 49.1 mM); solubility at 24 h ([4]; isopropyl acetate): 11.5 mg/mL (≈ 28.6 mM); solubility at 24 h ([4]; methyl ethyl ketone): 63.1 mg/mL (≈ 157 mM); solubility at 24 h ([4]; methyl tert-butyl ether): 10.1 mg/mL (≈ 25.2 mM)
β | 99.6 | β | 99.7 | β | 99.6 | β | 99.7 | β | 0.00 | β | 0.07 | β | 0.07 | β | 0.20 | β | 0.18 | β | 0.00 | O=C(O)c1cc(C2CC2)cnc1Nc1ccc2c(ccn2Cc2cccc(F)c2)c1 [β-Form crystal, 5-cyclopropyl-2-((1-(3-fluorobenzyl)-1H-indol-5-yl)amino)nicotinic acid] | Crystal form ([2]; 25° C. 97% RH, 2 weeks): β; Rate of weight change (%) ([2]; 25° C. 97% RH, 2 weeks): 0.10%; Crystal form ([2]; 25° C. 97% RH, 4 weeks): β; Rate of weight change (%) ([2]; 25° C. 97% RH, 4 weeks): 0.11%; Crystal form ([2]; 25° C. 97% RH, 8 weeks): β; Rate of weight change (%) ([2]; 25° C. 97% RH, 8 weeks): 0.26%; Crystal form ([2]; 25° C. 97% RH, 12 weeks): β; Rate of weight change (%) ([2]; 25° C. 97% RH, 12 weeks): 0.25%; Stability (hygroscopicity test) [2]: stable; Relative stability of crystal forms ([3]; concluded from crystal transition in suspension): more stable than the α-form crystal; Solubility ([4]; 2-Propanol): 3.0 mg/mL (≈ 7.47 mM); Solubility ([4]; Acetone): 48.9 mg/mL (≈ 122 mM); Solubility ([4]; Acetonitrile): 2.7 mg/mL (≈ 6.73 mM); Solubility ([4]; Ethanol): 6.8 mg/mL (≈ 16.9 mM); Solubility ([4]; Ethyl acetate): 16.8 mg/mL (≈ 41.8 mM); Solubility ([4]; Isopropyl acetate): 9.8 mg/mL (≈ 24.4 mM); Solubility ([4]; Methyl ethyl ketone): 55.3 mg/mL (≈ 138 mM); Solubility ([4]; Methyl tert-butyl ether): 8.1 mg/mL (≈ 20.2 mM); Relative stability of crystal forms ([4]; concluded from solubility): more stable than the α-form crystal; Solubility compared between crystal forms ([4]; various organic solvents): lower than the solubility of the α-form crystal
